# Reference: patent US6503709B1, “Methods for rapidly detecting methicillin resistant staphylococci” (priority 1997, dated 2003)
# {Fluorescein} = fluorescein label; {Biotin} = biotin label; d = 2'-deoxy (DNA); r = 2'-OH (RNA)
# What was measured:
# [1] = system: borderline oxacillin resistant S. aureus (BORSA) isolates; assay: Disk diffusion, oxacillin in the presence of clavulanic acid; type: cell-based, Staphylococcus aureus
# Experimental: (§1) The crude lysate preparations, probe synthesis, CPT procedure and analyses were carried out as described in Example 4 except that the cells were picked from the TSA blood plate with a 1 μl plastic loop (PML Microbiological, Richmond, BC, Canada) resuspended in 50 μl of 0.05% Triton X-100® in 20 mM TES buffer (pH 6.8) and lysed with the addition of achromopeptidase (Wako Bioproducts) as described in Example 4. The DNA was heat denatured at 95° C. for 5 minutes prior to use. The experiment was carried out as an operator blind study. The isolates were also tested with conventional oxacillin screening agar (PML Microbiological), Kirby-Bauer Disc diffusion, minimal inhibitory concentration (MIC) using E-Test with 4% NaCl Meuller-Hinton and S. aureus were tested with the BBL® Crystal™ MRSA ID test (Beckton Dickinson).
# [2] = system: borderline oxacillin resistant S. aureus (BORSA) isolates; assay: Minimal inhibitory concentration (MIC) using E-Test; type: cell-based; settings: Staphylococcus aureus
# Experimental: as §1
# mecA gene [3] = assay: CPT Direct Fluorescence Assay (CPT-DFA) on crude lysates; type: biochemical, Staphylococcus aureus
# Experimental: Two experiments were carried out for the detection of the mecA gene from clinical isolates using the direct fluorescence assay (DFA) combined with CPT (CPT-DFA). In the first experiment, 58 isolates were screened using a plate reader format, and in the second experiment, 120 isolates were screened using single tube reader format. Briefly, the assay uses a fluoresceinated and biotinylated chimeric probe complementary to a sequence within the mecA gene present in MRSA, but not in MSSA. The probe is labeled with fluorescein at the 5′ end and biotin at the 3′ end. The CPT assay is performed with crude lysate preparations from Staphylococcal cells in the presence of RNase H and the chimeric probe. After the cycling reaction, streptavidin coated magnetic beads are added to bind the uncleaved probe. The supernatant containing the cleaved fragment labeled with fluorescein is separated from the beads using a magnet and the supernatant is transferred to a glass tube or a microtiter plate for fluorescence measurement.
# The source of the fifty-eight clinical isolates were obtained from Cleveland Hospital, Wishard Memorial and Vancouver General Hospital. All MRSA and MSSA cells were prepared and lysed essentially as described in Example 4 except that the lysates were prepared as either 2×McFarland No. 5 standard density or 1 μl loop of cells in 50 μl volume. One μl loop of cells is approximately equivalent to 5×McFarland No. 5 standard.
# The streptavidin coated magnetic beads (Dynal M-280, Oslo, Norway) were prepared by washing two times in an equal volume of TES cycling buffer (4 mM MgCl2, 0.05% Triton X-100®, 20 mM TES, pH 6.8). The beads were then re-suspended in 10 times the original volume with cycling buffer containing NaCl. The diluted beads were added to the reactions containing biotinylated probe to a final concentration of 50 μg of beads/reaction and a final NaCl concentration of 1.5 M. Binding was carried out in a thermomixer (Eppendorf) at 37° C. with mixing at a speed of 13×100 minutes^−, for 10 minutes. The supernatant was then separated from the beads using an MPC magnet (Dynal).
# Probe was detected after binding using the Fluoroskan fluorescence plate reader (Labsystems, Needham. Mass.) by placing the supernatant containing the cleaved probe in a well of MicroFluor ‘U’ black round bottom plate (Dynatech, Chantilly, Va.). To each well containing a sample, 150 μl of 0.22 M DEA pH 10 was added. Any bubbles in the wells were removed using the edge of a Kimwipe (Roswell, Ga.). The plate was scanned in the plate reader with an excitation wavelength of 485 nm, an emission wavelength of 538 nm and a scan/well time of 20×0.1 sec, at room temperature. Similar detection using the Beacon-2000 tube reader (Panvera, Madison, Wis.) was performed, by placing the supernatant containing the probe in a borosilicate glass tube (Kimble, Toledo, Ohio), that contains 11 μl of 2.0 M DEA, pH 10. The samples were then vortexed and the fluorescence intensity was measured using the static mode of the Beacon-2000 instrument. The excitation and emission wavelengths were 485 nm and 515 nm respectively and an average of 10 read cycles at 25° C. was used.
# The assay used a chimeric probe FmecA945-29(XL)4B3 (SEQ ID NO:5) labeled with fluorescein at the 5′ end and three biotin at the 3′ end. Cycling reactions with crude lysate were performed in a 50 PI reaction containing 25 μl of crude lysates. The lysates were denatured at 95° C. for 2 minutes. CPT reaction was carried out and the final conditions were as follows: 1 pmol chimeric probe, 25 μl of crude lysates, 50 μM EDTA, 0.5 mM spermine, 1.5 μg of RNase H in a final reaction volume of 50 μl. All reactions were cycled in a 60° C. water bath, in microcentrifuge tubes (uncapped) for 50 minutes. Reactions were stopped with the addition of an equal volume of diluted beads (50 μg of beads/reaction in Cycling Buffer and NaCl), while still in the water bath. Binding and detection were carried out as described above. […]
# mecA 227 bp amplicon = assay: PCR followed by CPT-EIA detection of amplicon; type: biochemical, Staphylococcus aureus
# Experimental: Crude lysates of MSSA (ATCC 11632) and MRSA (ATCC 33592) strains were grown overnight at 37° C. on tryptic soy agar with 5% sheep blood (PML Microbiologicals, Tualatin, Oreg.). A cell suspension was made in TES buffer (20 mM TES (pH 6.8), 0.05% Triton X-100) to obtain a cell density equivalent to a 5×McFarland#5 standard of turbidity (7.5×10^9 cells/ml). The cells were lysed with 150 U/ml achromopeptidase (Wako ) for 25 min at 37° C. After lysis, the cells were stored at −20° C. Adequate dilutions were made in deionized sterile water.
# The PCR reaction was carried out in a 25 μl reaction containing 20 mM Tris,(pH 8.3) 1.5 MM MgCl2 0.2 mM dNTPs (Pharmacia), 6.25 pmol of each primer (Table 1) and 0.5 U AmpliTaq Gold (Perkin Elmer). The PTC-100 Programmable Thermal Cycler (MJ Research, Inc.) was used with the following PCR program: 95° C. for 10 min., 20×(94° C. for 40 s, 53° C. for 40 s and 72° C. for 1.5 min). The reaction was submitted to a final extension step at 72° C. for 5 min. and then held at 4° C. prior to analysis. PCR reactions were analyzed by CPT as described below or using a 2% agarose gel and ethidium bromide (Et-Br) staining.
# The 227 bp mecA PCR product was used as a standard to determine the sensitivity of CPT-EIA and Et-Br stained gels. The amplicon was prepared as follows: several 100 μl reactions were subjected to 30 cycle PCR and the amplicon was purified using a Qiagen PCR purification kit as recommended by the manufacturer. The 227 bp product was quantified by spectrophometer and used as a standard.
# CPT-EIA. The 25 μl PCR reaction was heat denatured at 95° C. for 2 min and then placed at 54° C. The CPT components in 25 μl were added to the PCR reaction to give a CPT reaction volume of 50 μl. […]
# mecA gene [4] = assay: Non-isotopic CPT assay (CPT-EIA) on crude lysates of clinical isolates; type: biochemical, Staphylococcus aureus; settings: n = 51, subtractive CPT assay
# Source text: The non-isotopic MRSA Assay which combines CPT with an enzyme immunoassay (CPT-EIA) is schematically illustrated in FIG. 3. This Rapid MRSA Test uses a fluoresceinated and biotinylated chimeric probe which provides an RNase H sensitive scissile linkage when bound to the complementary base sequence of the mecA gene. The uncleaved probe (mecA negative) is detected by binding of the probe to a solid surface and attachment of an antibody conjugated with horse radish peroxidase, which converts a substrate to a colored end product. Cleavage of the probe (mecA positive) prevents binding of the probe-antibody complex to the solid surface thus preventing formation of the colored end product. A result is generated in 90 minutes.
# Effective lysis of both MRSA and MSSA were developed and optimized. The composition of the Lysis Reagent is as follows: 200 Units/ml of achromopeptidase (Wako Bioproducts, Wako), 0.02 mg/ml lysostaphin (Sigma, St. Louis, Mo.), 0.05% (v/v) Triton X 100® and 20 mM TES buffer, pH 8.5. […]
# After cycling, 100 μl of Binding Reagent (Peroxidase Stabilizing Buffer, DAKO, Mississauga, ON), sheep polyclonal anti-fluorescein-horse radish peroxidase conjugated antibody (1/750 dilution, NEN, Boston, Mass.) was added to the tubes. […] The plate is read using a Vmax plate reader (Molecular Devices) set at OD of 650 nm (OD650).
# [5] = 58 isolates, Fluoroskan plate reader, relative to culture and PCR resolution
# [6] = 120 isolates, 1 pmol probe, Beacon-2000 tube fluorometer
# [7] = 120 isolates, Beacon-2000 tube fluorometer
molecule,measurement,setting,value
Cc1onc(-c2ccccc2)c1C(=O)N[C@@H]1C(=O)N2[C@@H]1SC(C)(C)[C@@H]2C(=O)O [oxacillin],susceptibility by disk diffusion,[1],susceptible
same,MIC,"[2]; 4 S. aureus isolates lacking mecA, oxacillin agar screen positive",3 to 16 µg/mL
same,MIC,"[2]; additional 31 S. aureus isolates lacking mecA, E test",3 to 12 µg/mL
"FmecA945-29(XL)4B3 (DNA AATAGAGAAAAAGAAAAAAGATGGCAAAG; fluorescein and biotin labels, chimeric DNA/RNA, further chemistry not given here)",sensitivity for detection of the mecA gene,mecA gene [3]; [5],100%
same,specificity for detection of the mecA gene,mecA gene [3]; [5],100%
same,range of fluorescence of MRSA samples,mecA gene [3]; [6],144.2-191.9
same,range of fluorescence of MSSA samples,mecA gene [3]; [6],58.1-101.7 RFU
same,net gap between the highest MSSA sample and the lowest MRSA,mecA gene [3]; [7],42.5 RFU
same,sensitivity,mecA gene [3]; [7],100%
same,specificity,mecA gene [3]; [7],98%
"FmecA945-29B (DNA AATAGAGAAAAAGAAAAAAGATGGCAAAG; sugars from the 5' end d13 r4 d12, 5' {Fluorescein}, 3' {Biotin}, backbone and methylation of C not given here; further chemistry not fully specified)",starting MRSA cells whose amplicon CPT-EIA could detect,"mecA 227 bp amplicon; 20 cycle PCR, serial dilution of crude lysates",≥ 100 cells
same,probe cleaved,"mecA 227 bp amplicon; 100 MRSA cell equivalent samples, 20 cycle PCR",80%
same,number of times the target is cycled in CPT,"mecA 227 bp amplicon; 100 MRSA cell equivalents, assuming 100% PCR efficiency (175 amol)",at least 50
same,A650 nm Mean,mecA gene [4]; MRSA clinical isolate lysates,0.053
same,A650 nm Mean,mecA gene [4]; MSSA clinical isolate lysates,0.239
